Assay results from US20240156856A1, “NOVEL APPLICATIONS OF HYALURONIC ACID FOR TREATMENT OF PAIN AND PRURITIS” (THE REGENTS OF THE UNIVERSITY OF CALIFORNIA, priority 2022, published 2024).

System: 5-HT-induced scratching behavior in rats
Experiment: 5-HT-induced scratching (itch) behavior
Assay type: in vivo
Settings: topical, protamine vehicle
Experimental: Topical hyaluronan attenuates itch behavior in rats. Intradermal administration of serotonin (5-HT) elicited acute scratching behavior, using the method of Nojima and Carstens {Nojima and Carstens, 2003, #99335; PMID: 12814838}. Rats were acclimated to a testing chamber for 30 min, and then briefly anesthetized with 2% isoflurane, during which the fur over the nape of the neck was shaved, and 5-HT (200 μg in 10 μl 0.9% saline vehicle) injected with a 30 gauge needle. In the topical hyaluronan group, hyaluronan (100 μg in 50 μl 75% DMSO in water vehicle) was applied to the skin 30 mins and again 5 mins before administration of 5-HT. Rats were placed back into testing chambers and their behavior video recorded for 40 min. Number of hind paw scratches directed at the injection site were counted by watching video playback at half normal speed, and total number of scratches in 2-min intervals recorded. Rats were treated with 5-HT alone and topical hyaluronan with 5-HT, with 4 days between experimental sessions, allowing for use of paired t-tests to compare data. Data are presented as cumulative number of scratches (FIG. 9A), and as total scratches over the 40-min observation period (FIG. 9B). […] See also, FIG. 10, which includes additional data showing that topical hyaluronan attenuates 5-HT-induced scratching behavior. […] Data are presented as cumulative number of scratches.

Substance: hyaluronan [500-1200 kDa hyaluronan]
- number of 5-HT-induced scratches (female rats): significantly attenuated the number of 5-HT-induced scratches
- number of 5-HT-induced scratches (male rats): significantly attenuated the number of 5-HT-induced scratches
